{"source": "patent US20210128667A1", "about": "“IMMUNOPROTEASOME INHIBITORS AND IMMUNOSUPPRESSIVE AGENT IN THE TREATMENT OF AUTOIMMUNE DISORDERS” (KEZAR LIFE SCIENCES, priority 2017, published 2021)", "key": {"[1]": {"system": "animal models of autoimmune disorders", "conditions": "animal models including RA and SLE; cited from earlier work"}, "immune effector cells [2]": {"system": "immune effector cells", "conditions": "cited from earlier work"}, "[3]": {"system": "patients with refractory SLE and LN", "conditions": "patients who had failed standard immunosuppressive therapies; cited from earlier work"}, "[4]": {"conditions": "in vivo; cited from earlier work"}, "immune effector cells [5]": {"system": "immune effector cells", "conditions": "cited from earlier work", "remark": "listed apart in the source"}, "immunoproteasome [6]": {"molecular_target": "immunoproteasome (Mus musculus, UniProt O35955+P28063+P28076)", "conditions": "upon administration to mice; cited from earlier work"}, "[7]": {"system": "mouse models of multiple sclerosis and SLE", "conditions": "in vivo; cited from earlier work"}, "mouse models of RA": {"system": "mouse models of RA", "conditions": "doses one tenth of the maximum tolerated dose (MTD); cited from earlier work"}, "[8]": {"system": "NZB/WF1 mice with established nephritis", "assay": "NZB/W F1 mouse model of established nephritis: proteinuria (urine dipsticks) and survival", "assay_type": "in vivo", "conditions": "2.5 mg/kg KZR-616 SC QW, 30 mg/kg QDx7 PO MMF, in comparison with the untreated mice", "method": "NZB/W Fl mice were purchased from Jackson Laboratories. All mice were housed in the animal facility at Kezar Life Sciences. All experiment protocols were reviewed and approved by the Kezar Committee on Animal Resources. NZB/WF1 mice with established nephritis (24 weeks of age with duratble proteinuria ≥1+ proteinuria) were treated with vehicle alone, 2.5 mg/kg KZR-616 SC QW, 30 mg/kg QDx7 PO MMF or the combination of 2.5 mg/kg KZR-616 SC QW KZR-616 and 30 mg/kg QDx7 PO MMF. Proteinuria was monitored weekly once with urine dipsticks (Uristix by Bayer) and survival was observed.\nTo investigate immunoproteasome inhibition combined with the standard of care treatment MMF, NZB/w mice were administered vehicle alone, 2.5 mg/kg KZR-616 SC QW, 30 mg/kg QDx7 PO MMF or the combination of KZR-616 and MMF."}, "immunoproteasome [9]": {"molecular_target": "T1, immunoproteasome (Rattus norvegicus, UniProt P28064+P28077+Q4KM35)", "T1 construct": "from tissue; host or cells: blood and tissues of dosed rats", "assay": "Immunoproteasome inhibition in blood and tissues after administration to rats", "assay_type": "in vivo", "conditions": "administered to rats"}, "immunoproteasome [10]": {"molecular_target": "T2, immunoproteasome (Homo sapiens, UniProt P28062+P28065+P40306)", "T2 construct": "endogenous in cells", "assay": "Immunoproteasome inhibition in human cells in vitro", "assay_type": "cell-based"}, "non-proteasomal targets": {"system": "non-proteasomal targets", "assay": "Broad diversity panel of biochemical assays (110 receptor/ligand and enzyme assays)"}, "[11]": {"molecular_target": "LMP7 subunit of the immunoproteasome (Homo sapiens, UniProt P28062)", "assay": "In vitro inhibition of immunoproteasome subunits", "assay_type": "biochemical"}, "immunoproteasome [12]": {"system": "immunoproteasome", "assay": "Immunoproteasome inhibition in blood and tissues after administration to monkeys", "assay_type": "in vivo", "conditions": "administered to monkeys"}, "immune cell types": {"system": "immune cell types", "assay": "In vitro immune cell function (cytokine production, T-cell subsets, plasma cells, autoantibodies)", "assay_type": "cell-based"}}, "data": [{"molecule": "CC(C)C[C@H](NC(=O)[C@H](Cc1ccccc1)NC(=O)c1cnccn1)B(O)O", "note": "[bortezomib]", "values": [{"measurement": "anti-inflammatory activity", "setting": "[1]", "value": "demonstrated anti-inflammatory activity"}, {"measurement": "cytokine release", "setting": "immune effector cells [2]", "value": "blocks cytokine release from immune effector cells"}, {"measurement": "clinical activity", "setting": "[3]", "value": "shown to have clinical activity"}, {"measurement": "peripheral neuropathy", "setting": "[4]", "value": "dose limiting side effect of peripheral neuropathy"}]}, {"molecule": "COc1ccc(C[C@H](NC(=O)[C@H](C)NC(=O)CN2CCOCC2)C(=O)N[C@@H](Cc2ccccc2)C(=O)[C@]2(C)CO2)cc1", "note": "[ONX 0914]", "values": [{"measurement": "autoantibody formation", "setting": "immune effector cells [5]", "value": "blocked autoantibody formation"}, {"measurement": "number and activity of inflammatory T-cell subsets such as Th1 and Th17", "setting": "immune effector cells [5]", "value": "reduced the number and activity of inflammatory T-cell subsets"}, {"measurement": "number of regulatory T-cells (Treg)", "setting": "immune effector cells [5]", "value": "increased the number of regulatory T-cells"}, {"measurement": "cytokine production", "setting": "immune effector cells [5]; immune effector cells", "value": "inhibited cytokine production in immune effector cells"}, {"measurement": "inhibition of the immunoproteasome", "setting": "immunoproteasome [6]", "value": "selectively inhibits the immunoproteasome"}, {"measurement": "activity and tolerability compared with bortezomib", "setting": "[7]", "value": "equivalent activity but better tolerability than bortezomib"}, {"measurement": "therapeutic activity", "setting": "[7]", "value": "therapeutically active"}, {"measurement": "joint inflammation, cytokine production and joint damage", "setting": "mouse models of RA", "value": "prevent joint-specific inflammation, reduce cytokine production, and ameliorate joint damage"}]}, {"molecule": "CC(C)C[C@H](NC(=O)[C@H](CCc1ccccc1)NC(=O)CN1CCOCC1)C(=O)N[C@@H](Cc1ccccc1)C(=O)N[C@@H](CC(C)C)C(=O)[C@@]1(C)CO1", "note": "[carfilzomib]", "values": [{"measurement": "peripheral neuropathy", "setting": "[4]", "value": "Peripheral neuropathy is not induced"}]}, {"molecule": "COc1c(C)c2c(c(O)c1C/C=C(\\C)CCC(=O)OCCN1CCOCC1)C(=O)OC2", "note": "[MMF, mycophenolate mofetil]", "values": [{"measurement": "level of proteinuria", "setting": "[8]", "value": "significantly reduced the level of proteinuria"}, {"measurement": "survival", "setting": "[8]", "value": "increased survival"}]}, {"molecule": "COc1ccc([C@@H](O)[C@H](NC(=O)[C@H](C)NC(=O)CN2CCOCC2)C(=O)N[C@@H](CC2=CCCC2)C(=O)[C@@]2(C)CO2)cc1", "note": "[KZR-616]", "values": [{"measurement": "inhibition of the immunoproteasome in blood and tissues", "setting": "immunoproteasome [9]", "value": "potent and selective inhibition in blood and tissues"}, {"measurement": "inhibition of the immunoproteasome", "setting": "immunoproteasome [10]", "value": "potent and selective inhibition of the immunoproteasome"}, {"measurement": "inhibition of non-proteasomal targets", "setting": "non-proteasomal targets", "value": "did not inhibit any non-proteasomal targets"}, {"measurement": "mechanism of inhibition of immunoproteasome subunits", "setting": "[11]", "value": "irreversible mechanism"}, {"measurement": "inhibition of the LMP7 subunit", "setting": "[11]; in vitro, selectivity relative to(35)", "value": "potent and selective inhibition"}, {"measurement": "inhibition of the immunoproteasome in blood and tissues", "setting": "immunoproteasome [12]", "value": "potent and selective inhibition in blood and tissues"}, {"measurement": "level of proteinuria", "setting": "[8]", "value": "significantly reduced the level of proteinuria"}, {"measurement": "survival", "setting": "[8]", "value": "increased survival"}, {"measurement": "activity of inflammatory T-helper cell subsets", "setting": "immune cell types", "value": "reduces the activity of inflammatory T-helper cell subsets"}, {"measurement": "number of regulatory T-cells", "setting": "immune cell types", "value": "increases the number of regulatory T-cells"}, {"measurement": "plasma cell formation and autoantibody production", "setting": "immune cell types", "value": "blocks plasma cell formation and autoantibody production"}, {"measurement": "cytokine production", "setting": "immune cell types; multiple immune cell types", "value": "blocks cytokine production across multiple immune cell types"}]}]}
